{"source": "paper PMC3382171", "about": "(PLoS ONE, 2012)", "assay_in_all_cases": "biochemical", "key": {"AuroraC": {"target": "T1, AuroraC (Homo sapiens, UniProt Q9UQB9)", "T1 construct": "gene AURKC", "conditions": "read-out: Dundee KSS % inhibition at 1uM", "description": "(§1) The METi and RAFi were screened against kinase panels (SelectScreen, Invitrogen; University of Dundee, Division of Signal Transduction Therapy, UK; Upstate Biotechnology/Millipore, Billerica, MA). In these selectivity assays the concentration of ATP was set to the Km value of ATP for each kinase tested to allow for a relative potency comparison between the various kinases. The compounds were tested at 1 µM final concentration. […] (A) Kinase selectivity screen (KSS) performed at Upstate Biotechnology. […] (B) KSS performed at University of Dundee (Division of Signal Transduction Therapy). […] (PDF) Click here for additional data file."}, "CAMKKB": {"target": "T2, CAMKKB (Homo sapiens, UniProt Q96RR4)", "T2 construct": "gene CAMKK2", "conditions": "read-out: Dundee KSS % inhibition at 1uM", "description": "as §1"}, "CAMKKa": {"target": "T3, CAMKKa (Homo sapiens, UniProt Q8N5S9)", "T3 construct": "gene CAMKK1", "T3 sequence (Q8N5S9 whole entry)": "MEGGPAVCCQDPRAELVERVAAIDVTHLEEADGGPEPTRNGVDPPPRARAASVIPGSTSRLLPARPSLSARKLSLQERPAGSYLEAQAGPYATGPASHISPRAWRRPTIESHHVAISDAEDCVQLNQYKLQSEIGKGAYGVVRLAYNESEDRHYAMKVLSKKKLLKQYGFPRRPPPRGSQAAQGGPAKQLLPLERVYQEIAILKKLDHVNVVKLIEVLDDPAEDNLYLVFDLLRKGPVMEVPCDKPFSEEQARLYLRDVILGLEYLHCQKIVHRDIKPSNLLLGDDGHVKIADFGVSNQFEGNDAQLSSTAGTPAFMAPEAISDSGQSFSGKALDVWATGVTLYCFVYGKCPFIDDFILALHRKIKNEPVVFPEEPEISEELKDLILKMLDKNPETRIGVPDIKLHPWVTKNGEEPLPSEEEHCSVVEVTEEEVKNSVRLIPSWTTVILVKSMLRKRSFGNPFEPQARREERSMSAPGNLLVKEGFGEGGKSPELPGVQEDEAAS", "conditions": "read-out: Dundee KSS % inhibition at 1uM", "description": "as §1"}, "CDK2/CyclinA": {"target": "CDK2/CyclinA (Homo sapiens, UniProt P24941)", "conditions": "read-out: Dundee KSS % inhibition at 1uM", "description": "as §1"}, "CSK": {"target": "CSK (Homo sapiens, UniProt P41240)", "conditions": "read-out: Dundee KSS % inhibition at 1uM", "description": "as §1"}, "DYRK3": {"target": "DYRK3 (Homo sapiens, UniProt O43781)", "conditions": "read-out: Dundee KSS % inhibition at 1uM", "description": "as §1"}, "IGF1R": {"target": "IGF1R (Homo sapiens, UniProt P08069)", "conditions": "read-out: Upstate KSS % inhibition at 1uM", "description": "as §1"}, "JNK2": {"target": "T4, JNK2 (Homo sapiens, UniProt P45984)", "T4 construct": "gene MAPK9", "conditions": "read-out: Dundee KSS % inhibition at 1uM", "description": "as §1"}, "JNK3": {"target": "T5, JNK3 (Homo sapiens, UniProt P53779)", "T5 construct": "gene MAPK10", "conditions": "read-out: Dundee KSS % inhibition at 1uM", "description": "as §1"}, "MAPK1/ERK2": {"target": "MAPK1/ERK2 (Homo sapiens, UniProt P28482)", "sequence (P28482 whole entry)": "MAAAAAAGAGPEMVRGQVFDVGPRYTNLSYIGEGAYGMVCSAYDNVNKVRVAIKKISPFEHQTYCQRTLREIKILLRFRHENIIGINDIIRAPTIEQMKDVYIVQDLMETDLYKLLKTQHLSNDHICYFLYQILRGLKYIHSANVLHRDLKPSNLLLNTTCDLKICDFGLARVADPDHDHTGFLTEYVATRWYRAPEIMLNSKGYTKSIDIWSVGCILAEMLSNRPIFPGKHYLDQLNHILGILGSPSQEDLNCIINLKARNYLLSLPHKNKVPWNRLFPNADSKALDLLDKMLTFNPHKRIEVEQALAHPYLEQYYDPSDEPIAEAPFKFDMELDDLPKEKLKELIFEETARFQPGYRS", "conditions": "read-out: Dundee KSS % inhibition at 1uM", "description": "as §1"}, "MAPKAP-K1a": {"target": "T6, MAPKAP-K1a (Homo sapiens, UniProt Q15418)", "T6 construct": "gene RPS6KA1", "conditions": "read-out: Dundee KSS % inhibition at 1uM", "description": "as §1"}, "MARK3": {"target": "MARK3 (Homo sapiens, UniProt P27448)", "sequence (P27448 whole entry)": "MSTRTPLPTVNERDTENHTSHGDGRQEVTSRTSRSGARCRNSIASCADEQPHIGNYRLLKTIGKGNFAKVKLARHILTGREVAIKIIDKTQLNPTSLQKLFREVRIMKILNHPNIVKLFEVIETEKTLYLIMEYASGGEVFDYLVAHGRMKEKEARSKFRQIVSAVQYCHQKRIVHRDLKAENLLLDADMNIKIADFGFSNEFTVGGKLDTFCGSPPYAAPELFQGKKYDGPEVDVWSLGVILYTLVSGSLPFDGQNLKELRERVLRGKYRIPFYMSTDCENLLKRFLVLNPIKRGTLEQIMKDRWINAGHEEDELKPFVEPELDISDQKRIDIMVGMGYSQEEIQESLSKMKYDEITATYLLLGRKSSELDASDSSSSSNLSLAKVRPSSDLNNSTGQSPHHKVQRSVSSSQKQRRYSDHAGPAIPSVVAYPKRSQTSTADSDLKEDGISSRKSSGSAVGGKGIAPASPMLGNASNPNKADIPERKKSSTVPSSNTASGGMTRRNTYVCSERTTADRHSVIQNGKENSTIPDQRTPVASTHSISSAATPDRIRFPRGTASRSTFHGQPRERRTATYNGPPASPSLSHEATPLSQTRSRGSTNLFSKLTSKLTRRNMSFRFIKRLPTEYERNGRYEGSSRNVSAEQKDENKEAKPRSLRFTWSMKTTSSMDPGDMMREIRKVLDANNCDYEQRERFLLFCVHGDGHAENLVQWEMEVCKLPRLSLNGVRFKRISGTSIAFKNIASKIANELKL", "conditions": "read-out: Dundee KSS % inhibition at 1uM", "description": "as §1"}, "MLCK": {"target": "T7, MLCK (Homo sapiens, UniProt Q15746)", "T7 construct": "gene MYLK", "T7 sequence (Q15746 whole entry)": "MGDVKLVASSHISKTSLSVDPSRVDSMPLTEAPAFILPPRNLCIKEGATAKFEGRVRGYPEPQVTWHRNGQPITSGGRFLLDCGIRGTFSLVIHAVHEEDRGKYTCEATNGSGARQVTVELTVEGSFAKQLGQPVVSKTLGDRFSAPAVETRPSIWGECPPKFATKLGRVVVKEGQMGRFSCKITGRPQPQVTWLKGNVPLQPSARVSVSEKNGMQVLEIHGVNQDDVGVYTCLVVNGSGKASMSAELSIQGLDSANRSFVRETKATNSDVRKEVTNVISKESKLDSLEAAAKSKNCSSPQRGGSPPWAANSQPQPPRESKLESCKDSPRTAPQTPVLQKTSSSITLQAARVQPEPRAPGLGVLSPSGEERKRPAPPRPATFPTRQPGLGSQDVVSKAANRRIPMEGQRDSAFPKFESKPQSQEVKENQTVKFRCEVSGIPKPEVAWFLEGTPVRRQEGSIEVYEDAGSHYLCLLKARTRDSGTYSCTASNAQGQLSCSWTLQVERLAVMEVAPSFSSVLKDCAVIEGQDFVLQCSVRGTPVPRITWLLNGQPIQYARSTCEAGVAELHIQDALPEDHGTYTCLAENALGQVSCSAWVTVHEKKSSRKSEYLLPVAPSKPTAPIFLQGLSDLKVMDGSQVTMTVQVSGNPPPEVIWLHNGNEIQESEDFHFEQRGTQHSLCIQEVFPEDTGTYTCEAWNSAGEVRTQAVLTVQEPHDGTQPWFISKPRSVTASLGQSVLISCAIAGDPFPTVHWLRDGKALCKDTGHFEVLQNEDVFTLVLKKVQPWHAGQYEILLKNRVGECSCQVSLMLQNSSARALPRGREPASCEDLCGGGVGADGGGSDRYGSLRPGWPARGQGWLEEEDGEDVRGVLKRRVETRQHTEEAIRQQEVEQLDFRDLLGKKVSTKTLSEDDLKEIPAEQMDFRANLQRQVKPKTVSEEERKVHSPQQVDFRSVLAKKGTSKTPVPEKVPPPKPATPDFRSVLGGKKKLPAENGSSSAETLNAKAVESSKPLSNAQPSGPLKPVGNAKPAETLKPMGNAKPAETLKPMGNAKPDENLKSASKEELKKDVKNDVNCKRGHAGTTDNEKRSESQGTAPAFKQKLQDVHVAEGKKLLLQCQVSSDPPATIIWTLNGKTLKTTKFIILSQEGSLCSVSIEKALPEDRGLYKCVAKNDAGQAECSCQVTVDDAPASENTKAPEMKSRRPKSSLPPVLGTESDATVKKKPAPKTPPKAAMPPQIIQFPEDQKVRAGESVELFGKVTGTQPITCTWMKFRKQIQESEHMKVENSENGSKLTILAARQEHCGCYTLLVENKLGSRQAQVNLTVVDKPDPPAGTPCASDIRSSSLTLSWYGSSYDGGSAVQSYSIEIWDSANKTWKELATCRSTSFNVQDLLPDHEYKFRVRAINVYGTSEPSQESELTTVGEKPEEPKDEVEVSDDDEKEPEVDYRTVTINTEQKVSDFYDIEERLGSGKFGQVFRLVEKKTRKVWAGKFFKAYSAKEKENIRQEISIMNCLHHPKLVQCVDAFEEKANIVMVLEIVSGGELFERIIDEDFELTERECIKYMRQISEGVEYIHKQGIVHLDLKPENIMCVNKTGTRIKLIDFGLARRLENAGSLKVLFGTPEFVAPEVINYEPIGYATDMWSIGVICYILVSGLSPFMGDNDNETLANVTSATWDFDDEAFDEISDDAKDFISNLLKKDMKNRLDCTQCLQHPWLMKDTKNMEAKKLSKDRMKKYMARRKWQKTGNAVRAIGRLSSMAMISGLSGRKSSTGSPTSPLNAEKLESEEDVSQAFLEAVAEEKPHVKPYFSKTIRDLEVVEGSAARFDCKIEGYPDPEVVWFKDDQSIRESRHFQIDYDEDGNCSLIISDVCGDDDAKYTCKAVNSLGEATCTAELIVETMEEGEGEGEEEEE", "conditions": "read-out: Dundee KSS % inhibition at 1uM", "description": "as §1"}, "MNK2": {"target": "T8, MNK2 (Homo sapiens, UniProt Q9HBH9)", "T8 construct": "gene MKNK2", "T8 sequence (Q9HBH9 whole entry)": "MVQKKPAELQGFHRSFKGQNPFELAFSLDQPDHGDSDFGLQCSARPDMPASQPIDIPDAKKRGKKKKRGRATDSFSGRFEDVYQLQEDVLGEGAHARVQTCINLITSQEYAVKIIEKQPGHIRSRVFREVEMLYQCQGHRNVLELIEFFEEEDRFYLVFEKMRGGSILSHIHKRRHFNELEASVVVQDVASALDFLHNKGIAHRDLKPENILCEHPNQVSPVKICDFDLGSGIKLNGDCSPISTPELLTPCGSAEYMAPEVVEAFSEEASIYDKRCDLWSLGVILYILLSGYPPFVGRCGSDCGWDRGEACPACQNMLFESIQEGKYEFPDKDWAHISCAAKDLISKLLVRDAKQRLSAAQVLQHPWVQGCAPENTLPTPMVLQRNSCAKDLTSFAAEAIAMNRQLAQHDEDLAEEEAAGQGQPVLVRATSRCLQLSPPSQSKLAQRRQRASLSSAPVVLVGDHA", "conditions": "read-out: Dundee KSS % inhibition at 1uM", "description": "as §1"}, "MSK1": {"target": "T9, MSK1 (Homo sapiens, UniProt O75582)", "T9 construct": "gene RPS6KA5", "conditions": "read-out: Dundee KSS % inhibition at 1uM", "description": "as §1"}, "MST2": {"target": "T10, MST2 (Homo sapiens, UniProt Q13188)", "T10 construct": "gene STK3", "conditions": "read-out: Dundee KSS % inhibition at 1uM", "description": "as §1"}, "NEK2a": {"target": "T11, NEK2a (Homo sapiens, UniProt P51955)", "T11 construct": "gene NEK2; isoform A", "conditions": "read-out: Dundee KSS % inhibition at 1uM", "description": "as §1"}, "NEK7": {"target": "NEK7 (Homo sapiens, UniProt Q8TDX7)", "conditions": "read-out: Dundee KSS % inhibition at 1uM", "description": "as §1"}, "P70S6K": {"target": "T12, P70S6K (Homo sapiens, UniProt P23443)", "T12 construct": "gene RPS6KB1", "conditions": "read-out: Dundee KSS % inhibition at 1uM", "description": "as §1"}, "PBK": {"target": "PBK (Homo sapiens, UniProt Q96KB5)", "sequence (Q96KB5 whole entry)": "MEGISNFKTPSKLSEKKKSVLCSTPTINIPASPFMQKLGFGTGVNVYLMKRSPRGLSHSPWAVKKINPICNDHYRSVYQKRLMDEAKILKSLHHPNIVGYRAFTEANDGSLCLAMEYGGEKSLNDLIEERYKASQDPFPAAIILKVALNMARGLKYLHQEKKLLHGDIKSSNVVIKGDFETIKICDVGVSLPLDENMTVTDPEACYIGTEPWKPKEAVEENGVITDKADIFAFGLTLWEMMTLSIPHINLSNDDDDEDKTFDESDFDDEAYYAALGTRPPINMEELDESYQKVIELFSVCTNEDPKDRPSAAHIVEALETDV", "conditions": "read-out: Dundee KSS % inhibition at 1uM", "description": "as §1"}, "PIM1": {"target": "PIM1 (Homo sapiens, UniProt P11309)", "conditions": "read-out: Dundee KSS % inhibition at 1uM", "description": "as §1"}, "PIM3": {"target": "PIM3 (Homo sapiens, UniProt Q86V86)", "conditions": "read-out: Dundee KSS % inhibition at 1uM", "description": "as §1"}, "PKCalpha": {"target": "T13, PKCalpha (Homo sapiens, UniProt P17252)", "T13 construct": "gene PRKCA", "conditions": "read-out: Dundee KSS % inhibition at 1uM", "description": "as §1"}, "PKD1": {"target": "T14, PKD1 (Homo sapiens, UniProt Q15139)", "T14 construct": "gene PRKD1", "conditions": "read-out: Dundee KSS % inhibition at 1uM", "description": "as §1"}, "PRAK": {"target": "T15, PRAK (Homo sapiens, UniProt Q8IW41)", "T15 construct": "gene MAPKAPK5", "T15 sequence (Q8IW41 whole entry)": "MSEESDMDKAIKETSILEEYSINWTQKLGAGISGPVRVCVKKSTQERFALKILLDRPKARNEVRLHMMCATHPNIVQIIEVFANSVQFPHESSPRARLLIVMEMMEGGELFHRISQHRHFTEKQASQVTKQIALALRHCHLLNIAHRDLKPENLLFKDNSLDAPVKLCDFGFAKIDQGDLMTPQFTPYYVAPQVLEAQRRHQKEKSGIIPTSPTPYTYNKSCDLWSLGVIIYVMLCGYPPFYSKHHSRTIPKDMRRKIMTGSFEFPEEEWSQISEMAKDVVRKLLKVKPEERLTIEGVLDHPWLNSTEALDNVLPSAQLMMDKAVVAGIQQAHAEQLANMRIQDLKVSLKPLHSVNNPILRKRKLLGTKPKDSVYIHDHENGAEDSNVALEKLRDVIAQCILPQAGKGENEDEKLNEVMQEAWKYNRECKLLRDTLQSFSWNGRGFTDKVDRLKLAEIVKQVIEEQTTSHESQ", "conditions": "read-out: Dundee KSS % inhibition at 1uM", "description": "as §1"}, "SAPK3/p38g": {"target": "T16, SAPK3/p38g (Homo sapiens, UniProt P53778)", "T16 construct": "gene MAPK12", "conditions": "read-out: Dundee KSS % inhibition at 1uM", "description": "as §1"}, "SAPK4/p38d": {"target": "T17, SAPK4/p38d (Homo sapiens, UniProt O15264)", "T17 construct": "gene MAPK13", "conditions": "read-out: Dundee KSS % inhibition at 1uM", "description": "as §1"}, "chicken SRC": {"target": "chicken SRC (Gallus gallus, UniProt P00523)", "conditions": "read-out: Dundee KSS % inhibition at 1uM", "description": "as §1"}, "deltaPH-PKBalpha": {"target": "T18, deltaPH-PKBalpha (Homo sapiens, UniProt P31749)", "T18 construct": "gene AKT1; delta PH", "conditions": "read-out: Dundee KSS % inhibition at 1uM", "description": "as §1"}, "deltaPH-PKBbeta": {"target": "T19, deltaPH-PKBbeta (Homo sapiens, UniProt P31751)", "T19 construct": "gene AKT2; delta PH", "conditions": "read-out: Dundee KSS % inhibition at 1uM", "description": "as §1"}, "mouse LCK": {"target": "mouse LCK (Mus musculus, UniProt P06240)", "conditions": "read-out: Dundee KSS % inhibition at 1uM", "description": "as §1"}, "rat DYRK1A": {"target": "rat DYRK1A (Rattus norvegicus, UniProt Q63470)", "conditions": "read-out: Dundee KSS % inhibition at 1uM", "description": "as §1"}}, "data": [{"smiles": "OCCn1cc(-c2cnc3nnn(Cc4ccc5ncccc5c4)c3n2)cn1", "note": "[METi, PF-04217903]", "values": [{"measurement": "inhibition at 1 µM", "setting": "AuroraC", "result": 6.48, "unit": "%"}, {"measurement": "inhibition at 1 µM", "setting": "CAMKKB", "result": 16.2, "unit": "%"}, {"measurement": "inhibition at 1 µM", "setting": "CAMKKa", "result": 8.9, "unit": "%"}, {"measurement": "inhibition at 1 µM", "setting": "CDK2/CyclinA", "result": 2.24, "unit": "%"}, {"measurement": "inhibition at 1 µM", "setting": "CSK", "result": 5.77, "unit": "%"}, {"measurement": "inhibition at 1 µM", "setting": "DYRK3", "result": -18.2, "unit": "%"}, {"measurement": "inhibition at 1 µM", "setting": "IGF1R", "result": 103, "unit": "%"}, {"measurement": "inhibition at 1 µM", "setting": "JNK2", "result": 14.9, "unit": "%"}, {"measurement": "inhibition at 1 µM", "setting": "JNK3", "result": -2.36, "unit": "%"}, {"measurement": "inhibition at 1 µM", "setting": "MAPK1/ERK2", "result": -13, "unit": "%"}, {"measurement": "inhibition at 1 µM", "setting": "MAPKAP-K1a", "result": 3.34, "unit": "%"}, {"measurement": "inhibition at 1 µM", "setting": "MARK3", "result": 4.4, "unit": "%"}, {"measurement": "inhibition at 1 µM", "setting": "MLCK", "result": 9.24, "unit": "%"}, {"measurement": "inhibition at 1 µM", "setting": "MNK2", "result": 13.4, "unit": "%"}, {"measurement": "inhibition at 1 µM", "setting": "MSK1", "result": 5.55, "unit": "%"}, {"measurement": "inhibition at 1 µM", "setting": "MST2", "result": 6.16, "unit": "%"}, {"measurement": "inhibition at 1 µM", "setting": "NEK2a", "result": -7.91, "unit": "%"}, {"measurement": "inhibition at 1 µM", "setting": "NEK7", "result": -7.5, "unit": "%"}, {"measurement": "inhibition at 1 µM", "setting": "P70S6K", "result": -0.67, "unit": "%"}, {"measurement": "inhibition at 1 µM", "setting": "PBK", "result": 5.14, "unit": "%"}, {"measurement": "inhibition at 1 µM", "setting": "PIM1", "result": 4.46, "unit": "%"}, {"measurement": "inhibition at 1 µM", "setting": "PIM3", "result": 10.7, "unit": "%"}, {"measurement": "inhibition at 1 µM", "setting": "PKCalpha", "result": 14.3, "unit": "%"}, {"measurement": "inhibition at 1 µM", "setting": "PKD1", "result": 6.21, "unit": "%"}, {"measurement": "inhibition at 1 µM", "setting": "PRAK", "result": 4.01, "unit": "%"}, {"measurement": "inhibition at 1 µM", "setting": "SAPK3/p38g", "result": 3.7, "unit": "%"}, {"measurement": "inhibition at 1 µM", "setting": "SAPK4/p38d", "result": 4.67, "unit": "%"}, {"measurement": "inhibition at 1 µM", "setting": "chicken SRC", "result": -11.5, "unit": "%"}, {"measurement": "inhibition at 1 µM", "setting": "deltaPH-PKBalpha", "result": 3.5, "unit": "%"}, {"measurement": "inhibition at 1 µM", "setting": "deltaPH-PKBbeta", "result": 8.16, "unit": "%"}, {"measurement": "inhibition at 1 µM", "setting": "mouse LCK", "result": 15.7, "unit": "%"}, {"measurement": "inhibition at 1 µM", "setting": "rat DYRK1A", "result": 2.39, "unit": "%"}]}]}
